Results on four compounds are retold here after patent US8535662B2, “Apyrase therapy for bleeding conditions” (Apt Therapeutics, Inc., priority 2010, dated 2013).

Where “and” joins values, the source holds several entries; their conditions need not be identical. Identical values can stand only once. Marks after values point to notes of the source that are not given here. Some results are limits rather than exact numbers.

The subject of series [1] is ADP-induced platelet aggregation. Nature of the series: Ex vivo ADP-induced platelet aggregation in platelet-rich plasma in pigs (Example 5). More on the design: species or system pig.
The subject of series [2] is pigs, coronary injury with stenting. Nature of the series: Coronary injury and stent in pigs: hematology, blood chemistry, coagulation, bleeding and inflammation markers (Example 6). Conditions: for ALT / AST / AlkPh / BUN / Creat / Glu / HGB / K / Na / PCV / Platelets / RBC / Tot. Prot / WBC: single animals and mean ± std. dev.
Series [3] relates to ADP-induced platelet aggregation. Kind of series: Ex vivo ADP-induced platelet aggregation in platelet-rich plasma after dosing rabbits. More on the design: species or system rabbit. The note with it: clopidogrel 10 mg/kg oral. The text has this: Blood samples taken at various time points were heparinized.
Data are presented as relative light transmission versus time.

For series [4], the system named is dogs, coronary thrombotic occlusion. Nature of the series: Canine coronary thrombosis and fibrinolysis model, adjunctive treatment with rtPA (Example 7). Type of series: in vivo, dog. Conditions: dogs. The method, then: Thrombotic occlusion was induced by electrical injury to a coronary artery in dogs. […] Buccal mucosa bleeding times, PT, and aPTT were measured as indices of bleeding risk. After 24 hours of reperfusion, infarct size was determined by Evan's blue and triphenyltetrazolium chloride double staining. This protocol is illustrated in FIG. 7.

In series [5] the test system is pigs, coronary injury with stenting. Kind of series: Coronary injury (balloon overstretch) and bare metal stent in pigs: platelet accumulation and luminal stenosis (Example 6). Type of series: in vivo, pig. How it is done: Coronary injury with or without stenting in pigs is regarded as the best preclinical model for simulation of human angioplasty (Touchard, A. G., et al., Thromb. Res. (2007) 120:477-484). One coronary artery was injured by balloon overstretch in each pig and the site of injury including some overlap with the non-injured vessel was covered with a single bare metal stent (BMS).
Accumulation of ^111In-labeled autologous platelets on the stents over the first 24 h was measured in 4/6 pigs in each group. Radiolabeled platelets were injected 15 min before the coronary catheterization and the hearts perfusion-fixed after 24 h to obtain the stented vessel segment for counting radiolabeled platelets.

The subject of series [6] is rats, thromboembolic stroke (MCA occlusion). Kind of series: Rat model of thromboembolic stroke (MCA occlusion by preformed clot), apyrase agent plus aspirin (Example 2). Type of series: in vivo. Conditions: for Neurological deficits, median (interquartile range 25th to 75th), modified Bederson score: n = 10. The method, then:
In this study, four experimental groups were included (n=10):
(1) control, saline injected gastrically;
(2) aspirin, 1.25 mg/kg (equivalent to 100 mg/day dose in human) injected gastrically once a day, starting 3 days prior to middle cerebral artery (MCA) occlusion and also MCA occlusion until the end of each experiment;
(3) apyrase, dose at 0.75 mg/kg injected IV at 2 h after MCA occlusion;
(4) combination group, aspirin and apyrase agent.
In this clinically relevant embolic model, ischemic brain injury was induced by embolizing preformed clots into the middle cerebral artery (MCA). Ten microliters of blood were withdrawn into a catheter and retained for 15 min to allow formation of a clot. Once the clot was formed, the catheter was advanced 17 mm in the ICA until its tip was 1-2 mm away from the origin of the MCA. The preformed clot in the catheter was then injected, and the catheter was removed. […]
Infarct was measured in the brain section stained with 2,3,5-triphenyltetrazolium chloride (TTC) solution. The infarct volume was expressed as a percentage of the total volume from the ipsilateral hemisphere.
Brain swelling (edema) was determined using a formula: edema=(the volume of the right hemisphere—the volume of the left hemisphere)/the volume of the left hemisphere.
Neurological deficits were determined using a modified Bederson's scoring system as following: 0: no observable deficit; 1: forelimb flexion; 2: forelimb flexion plus decreased resistance to lateral push; 3: unidirectional circling; 4: unidirectional circling plus decreased level of consciousness.
Hemorrhagic transformation was quantified by detection of extracellular hemoglobin content in brain homogenates using Drabkin's reagents.

Series [7] deals with rats, embolic stroke (thrombus injection into internal carotid artery). Nature of the series: Embolic stroke model in rats, apyrase agent with or without r-tPA (Example 1). Type of series: in vivo, rat. The note with it: r-tPA 10 mg/kg alone; brains at 3 days. The method, then: The following groups were included in this study:
(1) control (saline treated), n=11;
(2) apyrase agent at 0.75 mg/kg, n=4;
(3) apyrase agent at 2.25 mg/kg, n=4;
(4) r-tPA (at 10 mg/kg), n=4;
(5) apyrase agent at 0.75 mg/kg plus r-tPA (10 mg/kg) and
(6) apyrase agent at 2.25 mg/kg plus r-tPA (10 mg/kg) (n=10).
All the treatments were initiated at 2 h following thrombus injection into internal carotid artery. Infarct volume and behavioral deficit were determined at day 3 after the stroke.

The mark [8] stands for this setting: by the end of adjunctive therapy.
Where [9] appears, read: aspirin 5 mg/kg, clopidogrel 4 mg/kg.

Regarding `COC(=O)[C@H](c1ccccc1Cl)N1CCc2sccc2C1` [clopidogrel], the “platelet aggregation by 24 h” value in series [1] (24 h after dosing) is recorded as “persistent inhibition of aggregation”. For the same compound, the “time after dosing at which significant inhibition of ADP-induced platelet aggregation began” value in series [1] (clopidogrel 8 mg/kg gavage plus aspirin and heparin) came to 5 h. The “blood loss from a standardized incision of the abdominal wall” value in series [2] (2 and 24 h, blood collected over 5 min) is recorded as “trend for an increase in blood loss by 24 h”. The “template bleeding times relative to apyrase agent or control pigs” value in series [2] (2 and 24 h, scalpel cut at the edge of the ear) was ~3 fold. Also, the “PT compared to baseline” value in series [2] (3, 8 and 24 h after gavage) is reported as “increased significantly compared to baseline”. Moreover, the aPTT result in series [2] (during the time of heparinization) is reported as “the increase was significant only in clopidogrel-treated pigs”. In series [2], the ALT was 47 u/L and 65 u/L and 45 u/L (2×) and 43 u/L and 77 u/L; the AST was 61 u/L and 63 u/L and 57 u/L and 31 u/L and 44 u/L and 64 u/L; the AlkPh is 131 u/L and 111 u/L and 225 u/L and 180 u/L (2×) and 184 u/L; the BUN is 13 mg/dL and 12 mg/dL and 8 mg/dL and 7 mg/dL and 11 mg/dL and 5 mg/dL. In series [2], the Creat was 0.9 mg/dL (4×) and 1 mg/dL (2×); the Glu is 20 mg/dL and 33 mg/dL and 69 mg/dL and 40 mg/dL (2×) and 30 mg/dL; the HGB is 7.6 g/dL and 7.8 g/dL and 6.7 g/dL and 9.2 g/dL and 9 g/dL and 8.5 g/dL; the K is 4.3 mmol/L and 4.2 mmol/L (2×) and 3.5 mmol/L and 4.4 mmol/L (2×). In series [2], the Na is 131 mmol/L and 132 mmol/L and 119 mmol/L and 140 mmol/L and 134 mmol/L and 138 mmol/L; the PCV is 21.4% and 22.9% and 20.8% and 28% and 25% and 25.8%; the Platelets is 248 thns/uL and 347 thns/uL and 345 thns/uL and 294 thns/uL and 298 thns/uL and 225 thns/uL; the RBC was 4.3 mil/uL and 4.7 mil/uL (2×) and 4.6 mil/uL and 5.8 mil/uL and 5.5 mil/uL. Further, in series [2], the “Tot. Prot” value was 4.8 g/dL and 5.2 g/dL and 4.2 g/dL and 4.5 g/dL and 4.7 g/dL and 4.6 g/dL; the WBC is 10.8 thns/uL and 16.1 thns/uL and 11.3 thns/uL and 16.9 thns/uL (2×) and 12 thns/uL. The template bleeding time result in series [2] (summary of findings) is “markedly increased”. The “time after treatment at which significant effect on platelet aggregation was observed” value in series [3] is 5 h. Also, the “buccal mucosa bleeding time” value in series [4] is listed as “significantly prolonged”. Besides, in series [4] (setting [8]), the PT result was “increased” and the aPTT result is on record as “increased”.
With heparin, in series [2] (after heparin 150 U/kg), the “Activated Clotting Time relative to baseline” value is recorded as > 9 fold. For the same compound, the “Activated Clotting Time (ACT)” value in series [2] (after heparin 150 U/kg (baseline 119±15 sec, n=17)) worked out at 1114 ± 286 s.
In series [5] (30 days after stenting, six measurements in two pigs), `CC(=O)Oc1ccccc1C(=O)O` [aspirin] had an average luminal stenosis of 29.6±6%. Further, the “accumulation of radiolabeled platelets on stented coronaries” value in series [5] (after 24 h, apyrase […] or clopidogrel 8 mg/kg, each with aspirin 10 mg/kg and heparin) is given as 5.5×10^5 platelets/mm^2. Besides, in series [6] (4 h after MCA occlusion), the “Neurological deficits, median (interquartile range 25th to 75th), modified Bederson score” value (from here on “Neurological deficits, median”) stood at 3. The “Neurological deficits, median” value in series [6] (4 h after MCA occlusion, listed as Aspirin (ASA)) is on record as 3 (2-4). Besides, the “Neurological deficits, median” value in series [6] (8 h after MCA occlusion) is 2.5 (2-3). Besides, the “infarct volume, percentage of the total volume of the ipsilateral hemisphere (mean±SD)” value in series [6] (24 h after MCA occlusion, aspirin 1.25 mg/kg gastrically once a day from 3 days prior, apyrase 0.75 mg/kg IV at 2 h) was 20.69±2.85%. In addition, the “Neurological deficits, median” value in series [6] (24 h after MCA occlusion) is “significantly less severe than the control group”. Moreover, the “Neurological deficits, median” value in series [6] (24 h after MCA occlusion, listed as Aspirin (ASA)) is reported as 1.5 (1-2)*. Besides, in series [6] (24 h after ischemic injury), the “extracellular hemoglobin content in brain homogenates (hemorrhagic transformation, Drabkin's reagents)” value amounted to 0.93±0.11. The “brain edema (brain swelling)” value in series [6] (24 h after ischemic injury, aspirin 1.25 mg/kg, apyrase 0.75 mg/kg IV at 2 h) stood at 6.81±0.56%. Moreover, in series [2], the ALT was 48 u/L and 25 u/L and 52 u/L and 50 u/L and 106 u/L; the AST was 45 u/L and 24 u/L and 38 u/L and 29 u/L and 211 u/L; the AlkPh is 95 u/L and 68 u/L and 132 u/L and 117 u/L and 235 u/L; the BUN is 12 mg/dL and 10 mg/dL and 4 mg/dL and 7 mg/dL and 11 mg/dL. In series [2], the Creat was 1.1 mg/dL (4×) and 0.9 mg/dL; the Glu was 30 mg/dL and 38 mg/dL and 49 mg/dL and 20 mg/dL and 58 mg/dL; the HGB was 9.3 g/dL and 8.1 g/dL (3×) and 7.2 g/dL; the K is 3.5 mmol/L and 3.3 mmol/L and 3.6 mmol/L and 3.2 mmol/L and 2.7 mmol/L. In addition, in series [2], the Na is 135 mmol/L and 140 mmol/L and 138 mmol/L and 144 mmol/L and 117 mmol/L; the PCV was 26.8% and 27.7% and 23.9% and 22.8% and 20.7%; the Platelets is 301 thns/uL and 498 thns/uL and 355 thns/uL and 499 thns/uL and 213 thns/uL; the RBC is 5.19 mil/uL and 4.75 mil/uL and 4.9 mil/uL and 5.07 mil/uL and 4.52 mil/uL. In series [2], the “Tot. Prot” value is 6 g/dL and 4.5 g/dL and 4 g/dL and 5 g/dL and 4.2 g/dL; the WBC is 10.3 thns/uL and 16.4 thns/uL and 13.2 thns/uL and 13.9 thns/uL and 13.3 thns/uL. Also, in series [4] (setting [9]), the Re-occlusion rate stood at 100% and the Re-occlusion time was 81′. Besides, the “Reperfusion Time” value in series [4] (aspirin 5 mg/kg, clopidogrel 4 mg/kg, after r-tPA) is recorded as 23′.
Regarding “r-tPA: recombinant tissue plasminogen activator”, the “Hemorrhage #/total animals” value in series [7] is 5 out of 11 and 5/11.
